Patent publication US11130769B2 (Prelude Therapeutics Incorporated, priority 2018, dated 2021)

What was measured:
[1] = test system: H929 cells; experiment: Cell viability assay (H929 10 FBS); type: cell-based; conditions: Homo sapiens, NCI-H929, 24 hours, read-out: H929_10FBS IC50
Procedure, shortened: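 H929 cells, 4000/well, in RPMI 1640 with 10% FBS, sodium pyruvate, HEPES and glucose were exposed to compound 24 h at 37 °C. Viability read as luminescence after 30-60 min at RT with CellTiter-Glo or ATPlite 1 Step.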

[2] = target: MCL-1 (Homo sapiens (Human), UniProt Q07820); experiment: Cell free Mcl-1:Bim affinity assay (fluorescence polarization competition); type: binding; conditions: 15 nM MCL-1, 5 nM FITC-Bim, 1 hour at room temperature; class symbols; read-out: BIM_Ki
Chain of MCL-1 (Q07820 whole entry): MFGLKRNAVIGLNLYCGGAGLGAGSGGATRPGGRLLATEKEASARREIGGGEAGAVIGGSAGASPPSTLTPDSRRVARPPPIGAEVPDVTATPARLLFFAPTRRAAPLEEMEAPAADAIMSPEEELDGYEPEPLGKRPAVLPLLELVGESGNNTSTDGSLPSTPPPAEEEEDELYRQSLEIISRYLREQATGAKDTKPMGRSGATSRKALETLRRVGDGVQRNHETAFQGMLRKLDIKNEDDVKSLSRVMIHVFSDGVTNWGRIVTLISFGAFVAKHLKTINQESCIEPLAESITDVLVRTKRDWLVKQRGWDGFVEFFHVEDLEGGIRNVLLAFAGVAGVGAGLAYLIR
Procedure, shortened: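 Compounds competed with FITC-labelled Bim peptide (5 nM) for MCL-1 (15 nM) in HEPES/NaCl buffer with 1% DMSO, 1 h at room temperature. Fluorescence polarization (535 nm emission) gave % inhibition versus DMSO and positive controls; IC50 from 10-point curves, converted to Ki by the Nikolovska-Coleska equation.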

IC50 [1] | Ki [2] | SMILES
< 1 µM | 0.001 to 0.1 µM | CO[C@@H]1/C=C\CN(C)[C@H](C)C(=O)NS(=O)(=O)c2ccc3c(c2)N(C[C@@H]2CC[C@H]21)C[C@@]1(CCCc2cc(Cl)ccc21)CO3 [Example 124, (3R,6R,7R,8Z,12R,22S)-6′-Chloro-7-methoxy-11,12-dimethyl-15,15-dioxo-spiro[20-oxa-15-thia-1,11,14-triazatetracyclo[14.7.2.03,6.019,24]pentacosa-8,16(25),17,19(24)-tetraene-22,1′-tetralin]-13-one]
> 1 µM | < 0.001 µM | COC[C@@H]1OC/C=C/[C@@H](OC)[C@@H]2CC[C@H]2CN2C[C@@]3(CCCc4cc(Cl)ccc43)COc3ccc(cc32)S(=O)(=O)NC1=O [Example 125, (3R,6R,7R,8E,12S,22S)-6′-Chloro-7-methoxy-12-(methoxymethyl)-15,15-dioxo-spiro[11,20-dioxa-15-thia-1,14-diazatetracyclo[14.7.2.03,6.019,24]pentacosa-8,16(25),17,19(24)-tetraene-22,1′-tetralin]-13-one]
> 1 µM | 0.001 to 0.1 µM | CO[C@@H]1/C=C/CN[C@@H](C2CC2)C(=O)NS(=O)(=O)c2ccc3c(c2)N(C[C@@H]2CC[C@H]21)C[C@@]1(CCCc2cc(Cl)ccc21)CO3 [Example 126, (3R,6R,7R,8E,12S,22S)-6′-Chloro-7-methoxy-12-cyclopropyl-15,15-dioxo-spiro[20-oxa-15-thia-1,11,14-triazatetracyclo[14.7.2.03,6.019,24]pentacosa-8,16,18,24-tetraene-22,1′-tetralin]-13-one]
< 1 µM | 0.001 to 0.1 µM | CO[C@@H]1/C=C/CN(C)[C@@H](C2CC2)C(=O)NS(=O)(=O)c2ccc3c(c2)N(C[C@@H]2CC[C@H]21)C[C@@]1(CCCc2cc(Cl)ccc21)CO3 [Example 127, (3R,6R,7R,8E,12S,22S)-6′-Chloro-12-cyclopropyl-7-methoxy-11-methyl-15,15-dioxo-spiro[20-oxa-15-thia-1,11,14-triazatetracyclo[14.7.2.0˜3,6.0˜19,24]pentacosa-8,16,18,24-tetraene-22,1′-tetralin]-13-one]
> 1 µM | 0.001 to 0.1 µM | CO[C@@H]1/C=C/CN[C@@H](C(C)C)C(=O)NS(=O)(=O)c2ccc3c(c2)N(C[C@@H]2CC[C@H]21)C[C@@]1(CCCc2cc(Cl)ccc21)CO3 [Example 128, (3R,6R,7R,8E,12S,22S)-6′-Chloro-7-methoxy-12-isopropyl-15,15-dioxo-spiro[20-oxa-15-thia-1,11,14-triazatetracyclo[14.7.2.03,6.019,24]pentacosa-8,16,18,24-tetraene-22,1′-tetralin]-13-one]
> 1 µM | 0.001 to 0.1 µM | CO[C@@H]1/C=C/CN(C)[C@@H](C(C)C)C(=O)NS(=O)(=O)c2ccc3c(c2)N(C[C@@H]2CC[C@H]21)C[C@@]1(CCCc2cc(Cl)ccc21)CO3 [Example 129, (3R,6R,7R,8E,12S,22S)-6′-Chloro-7-methoxy-11-methyl-12-isopropyl-15,15-dioxo-spiro[20-oxa-15-thia-1,11,14-triazatetracyclo[14.7.2.03,6.019,24]pentacosa-8,16,18,24-tetraene-22,1′-tetralin]-13-one]
> 1 µM | 0.001 to 0.1 µM | CO[C@@H]1/C=C\CNC(=O)NS(=O)(=O)c2ccc3c(c2)N(C[C@@H]2CC[C@H]21)C[C@@]1(CCCc2cc(Cl)ccc21)CO3 [Example 130, (3R,6R,7R,8Z,21S)-6′-Chloro-7-methoxy-14,14-dioxo-spiro[19-oxa-14-thia-1,11,13-triazatetracyclo[13.7.2.03,6.018,23]tetracosa-8,15,17,23-tetraene-21,1′-tetralin]-12-one]
> 1 µM | 0.001 to 0.1 µM | CO[C@@H]1/C=C/CNC(=O)NS(=O)(=O)c2ccc3c(c2)N(C[C@@H]2CC[C@H]21)C[C@@]1(CCCc2cc(Cl)ccc21)CO3 [Example 131, (3R,6R,7R,8E,21S)-6′-chloro-7-methoxy-14,14-dioxo-spiro[19-oxa-14-thia-1,11,13-triazatetracyclo[13.7.2.03,6.018,23]tetracosa-8,15,17,23-tetraene-21,1′-tetralin]-12-one]
< 0.5 µM | 0.001 to 0.1 µM | CCN1C/C=C/[C@@H](OC)[C@@H]2CC[C@H]2CN2C[C@@]3(CCCc4cc(Cl)ccc43)COc3ccc(cc32)S(=O)(=O)NC(=O)[C@H]1C [Example 132, (3R,6R,7R,8E,12R,22S)-6′-Chloro-7-methoxy-11-ethyl-12-methyl-15,15-dioxo-spiro[20-oxa-15-thia-1,11,14-triazatetracyclo[14.7.2.03,6.019,24]pentacosa-8,16(25),17,19(24)-tetraene-22,1′-tetralin]-13-one]
> 1 µM | 0.001 to 0.1 µM | CO[C@@H]1/C=C/CN(C(C)=O)[C@H](C)C(=O)NS(=O)(=O)c2ccc3c(c2)N(C[C@@H]2CC[C@H]21)C[C@@]1(CCCc2cc(Cl)ccc21)CO3 [Example 133, (3R,6R,7R,8E,12R,22S)-6′-Chloro-7-methoxy-11-acetyl-12-methyl-15,15-dioxo-spiro[20-oxa-15-thia-1,11,14-triazatetracyclo[14.7.2.03,6.019,24]pentacosa-8,16(25),17,19(24)-tetraene-22,1′-tetralin]-13-one]
> 1 µM | 0.001 to 0.1 µM | COC(=O)N1C/C=C/[C@@H](OC)[C@@H]2CC[C@H]2CN2C[C@@]3(CCCc4cc(Cl)ccc43)COc3ccc(cc32)S(=O)(=O)NC(=O)[C@H]1C [Example 134, Methyl (3R,6R,7R,8E,12R,22S)-6′-Chloro-7-methoxy-12-methyl-13,15,15-trioxo-spiro[20-oxa-15-thia-1,11,14-triazatetracyclo[14.7.2.03,6.019,24]pentacosa-8,16,18,24-tetraene-22,1′-tetralin]-11-carboxylate]
> 1 µM | 0.001 to 0.1 µM | CO[C@@H]1/C=C/CN(S(C)(=O)=O)[C@H](C)C(=O)NS(=O)(=O)c2ccc3c(c2)N(C[C@@H]2CC[C@H]21)C[C@@]1(CCCc2cc(Cl)ccc21)CO3 [Example 135, (3R,6R,7R,8E,12R,22S)-6′-Chloro-7-methoxy-12-methyl-11-methylsulfonyl-15,15-dioxo-spiro[20-oxa-15-thia-1,11,14-triazatetracyclo[14.7.2.03,6.019,24]pentacosa-8,16,18,24-tetraene-22,1′-tetralin]-13-one]
> 1 µM | 0.001 to 0.1 µM | CO[C@H]1/C=C/CNC(C)(C)C(=O)NS(=O)(=O)c2ccc3c(c2)N(C[C@@H]2CC[C@H]21)C[C@@]1(CCCc2cc(Cl)ccc21)CO3 [Example 136, (3R,6R,7S,8E,22S)-6′-Chloro-7-methoxy-12,12-dimethyl-15,15-dioxo-spiro[20-oxa-15-thia-1,11,14-triazatetracyclo[14.7.2.03,6.019,24]pentacosa-8,16,18,24-tetraene-22,1′-tetralin]-13-one]
< 1 µM | 0.001 to 0.1 µM | CO[C@H]1/C=C/CN(C)C(C)(C)C(=O)NS(=O)(=O)c2ccc3c(c2)N(C[C@@H]2CC[C@H]21)C[C@@]1(CCCc2cc(Cl)ccc21)CO3 [Example 137, (3R,6R,7S,8E,22S)-6′-Chloro-7-methoxy-11,12,12-trimethyl-15,15-dioxo-spiro[20-oxa-15-thia-1,11,14-triazatetracyclo[14.7.2.03,6.019,24]pentacosa-8,16,18,24-tetraene-22,1′-tetralin]-13-one]
< 1 µM | 0.001 to 0.1 µM | CN1C/C=C/[C@@H](O)[C@@H]2CC[C@H]2CN2C[C@@]3(CCCc4cc(Cl)ccc43)COc3ccc(cc32)S(=O)(=O)NC(=O)C12CCC2 [Example 138, (3R,6R,7R,8E,22S)-6′-Chloro-7-hydroxy-11-methyl-12,12-(1,3-propylene)-15,15-dioxo-spiro[20-oxa-15-thia-1,11,14-triazatetracyclo[14.7.2.03,6.019,24]pentacosa[8,16(25),17,19(24)]tetraene-22,1′-tetralin]-13-one]
< 0.5 µM | < 0.001 µM | CN(C)C(=O)CO[C@H]1/C=C/COC(C)(C)C(=O)NS(=O)(=O)c2ccc3c(c2)N(C[C@@H]2CC[C@H]21)C[C@@]1(CCCc2cc(Cl)ccc21)CO3 [Example 140, 2-[(3R,6R,7S,8E,22S)-6′-Chloro-12,12-dimethyl-13,15,15-trioxo-spiro[11,20-dioxa-15-thia-1,14-diazatetracyclo[14.7.2.03,6.019,24]pentacosa-8,16,18,24-tetraene-22,1′-tetralin]-7-yl]oxy-N,N-dimethyl-acetamide]
< 0.5 µM | < 0.001 µM | CN(C)C(=O)CO[C@@H]1/C=C/COC(C)(C)C(=O)NS(=O)(=O)c2ccc3c(c2)N(C[C@@H]2CC[C@H]21)C[C@@]1(CCCc2cc(Cl)ccc21)CO3 [Example 141, 2-[(3R,6R,7R,8E,22S)-6′-Chloro-12,12-dimethyl-13,15,15-trioxo-spiro[11,20-dioxa-15-thia-1,14-diazatetracyclo[14.7.2.03,6.019,24]pentacosa-8,16,18,24-tetraene-22,1′-tetralin]-7-yl]oxy-N,N-dimethyl-acetamide]
< 1 µM | < 0.001 µM | CN(C)C(=O)CO[C@H]1/C=C/COC2(CC2)C(=O)NS(=O)(=O)c2ccc3c(c2)N(C[C@@H]2CC[C@H]21)C[C@@]1(CCCc2cc(Cl)ccc21)CO3 [Example 142, 2-[(3R,6R,7S,8E,22S)-6′-Chloro-12,12-ethylene-13,15,15-trioxo-spiro[11,20-dioxa-15-thia-1,14-diazatetracyclo[14.7.2.03,6.019,24]pentacosa-8,16,18,24-tetraene-22,1′-tetralin]-7-yl]oxy-N,N-dimethyl-acetamide]
